Assay results taken from patent US20230348418A1, “ISOINDOLINONE COMPOUNDS” (Monte Rosa Therapeutics, Inc., priority 2021, published 2023).

Columns and labels:
GSPT1 [1] = biological target: T1, GSPT1 (Homo sapiens, UniProt P15170+Q96SW2); assay: relative levels of GSPT1 versus concentration (FIG. 2B); format: cell-based; design: endogenous in cells; host or cells: MM1S (ATCC CRL-2974); details: cell line not named
Procedure: GSPT1 was degraded by compound 10 after six hours of treatment in high N-Myc NCI-H1155 and ABC-1 cells with a DC50 of 3 nM and 22 nM, respectively (x-axys represents […]M concentration of compound 10; y-axis represents the viability in %).

GSPT1 [2] = biological target: T1, GSPT1; assay: GSPT1 levels by western blotting/densitometry in NSCLC cell lines NCI-H1155 and ABC-1; format: cell-based
Procedure: The anti-proliferative activity of compound 10 was tested on representative N-Myc high and N-Myc low cell lines (NCI-H1155, ABC-1 and EBC-1, NCI-H2023, respectively) following treatment with compound for 72 hours. Cells were sub-cultures as recommended by the providers (ATCC, DSMZ) and incubated at 37° C., 5% CO2. All cells were authenticated and confirmed by Short Tandem Repeat (STR) profiling. Briefly, cells were seeded to the appropriate density to allow logarithmic growth over the assay period in 96-well opaque-walled clear bottom plates (from Corning, Cat. No. 3903, Lot. No. 16419061; 100 μL total volume) and incubated overnight. […] Cell viability was assessed using the CellTiter-Glo assay kit as recommended by the Manufacturer (Promega, Cat. No. G7558, Lot. No. 0000385738) and measurements performed on the EnSpire multimode plate reader (Perkin Elmer). EC50 values were determined using Prism8 (GraphPad) and the asymmetric (five-parameter) equation and least squares fit. GSPT1 levels were assessed in the NCI-H1155 and ABC-1 cell lines by densitometry analysis following treatment with compound 10 for 6 hours and western blotting analysis. […] For chemiluminescence and colorimetric signals “optimal automatic exposure” settings (3×3 binning) were employed while fluorescence was detected using 1-4 seconds exposure time to achieve best GAPDH signals and avoid overexposure. […]

NCI-H526 = assay: N-Myc-driven mouse xenograft model, human cell line NCI-H526 (FIG. 3D); format: in vivo

T1 sequence (P15170 whole entry): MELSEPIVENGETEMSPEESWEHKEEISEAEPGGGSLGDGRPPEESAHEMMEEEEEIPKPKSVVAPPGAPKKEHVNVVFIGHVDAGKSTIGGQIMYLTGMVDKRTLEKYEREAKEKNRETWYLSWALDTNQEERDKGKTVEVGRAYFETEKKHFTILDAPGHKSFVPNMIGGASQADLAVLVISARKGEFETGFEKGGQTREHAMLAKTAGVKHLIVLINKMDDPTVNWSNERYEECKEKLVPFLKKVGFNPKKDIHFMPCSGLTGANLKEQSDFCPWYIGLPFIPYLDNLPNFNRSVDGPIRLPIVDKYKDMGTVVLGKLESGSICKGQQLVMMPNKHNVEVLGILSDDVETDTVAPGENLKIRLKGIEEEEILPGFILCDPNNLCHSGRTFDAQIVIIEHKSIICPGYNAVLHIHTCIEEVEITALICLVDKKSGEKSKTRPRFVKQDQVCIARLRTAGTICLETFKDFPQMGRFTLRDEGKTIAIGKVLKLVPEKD
T1 sequence (Q96SW2 whole entry): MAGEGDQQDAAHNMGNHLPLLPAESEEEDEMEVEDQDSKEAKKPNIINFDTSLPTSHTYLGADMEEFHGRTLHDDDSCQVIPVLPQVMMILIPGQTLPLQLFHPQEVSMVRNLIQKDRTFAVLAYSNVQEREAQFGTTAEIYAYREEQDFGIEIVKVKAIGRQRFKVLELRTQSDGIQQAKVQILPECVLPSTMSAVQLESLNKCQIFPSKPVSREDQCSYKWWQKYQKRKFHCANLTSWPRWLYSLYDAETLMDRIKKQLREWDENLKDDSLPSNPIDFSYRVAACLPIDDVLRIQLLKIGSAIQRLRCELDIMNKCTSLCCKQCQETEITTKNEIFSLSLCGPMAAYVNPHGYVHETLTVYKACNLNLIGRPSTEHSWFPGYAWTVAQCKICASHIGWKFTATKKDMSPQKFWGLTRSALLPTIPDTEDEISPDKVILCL
T1 sequence (Q16531 2-1140 partner limits assumed): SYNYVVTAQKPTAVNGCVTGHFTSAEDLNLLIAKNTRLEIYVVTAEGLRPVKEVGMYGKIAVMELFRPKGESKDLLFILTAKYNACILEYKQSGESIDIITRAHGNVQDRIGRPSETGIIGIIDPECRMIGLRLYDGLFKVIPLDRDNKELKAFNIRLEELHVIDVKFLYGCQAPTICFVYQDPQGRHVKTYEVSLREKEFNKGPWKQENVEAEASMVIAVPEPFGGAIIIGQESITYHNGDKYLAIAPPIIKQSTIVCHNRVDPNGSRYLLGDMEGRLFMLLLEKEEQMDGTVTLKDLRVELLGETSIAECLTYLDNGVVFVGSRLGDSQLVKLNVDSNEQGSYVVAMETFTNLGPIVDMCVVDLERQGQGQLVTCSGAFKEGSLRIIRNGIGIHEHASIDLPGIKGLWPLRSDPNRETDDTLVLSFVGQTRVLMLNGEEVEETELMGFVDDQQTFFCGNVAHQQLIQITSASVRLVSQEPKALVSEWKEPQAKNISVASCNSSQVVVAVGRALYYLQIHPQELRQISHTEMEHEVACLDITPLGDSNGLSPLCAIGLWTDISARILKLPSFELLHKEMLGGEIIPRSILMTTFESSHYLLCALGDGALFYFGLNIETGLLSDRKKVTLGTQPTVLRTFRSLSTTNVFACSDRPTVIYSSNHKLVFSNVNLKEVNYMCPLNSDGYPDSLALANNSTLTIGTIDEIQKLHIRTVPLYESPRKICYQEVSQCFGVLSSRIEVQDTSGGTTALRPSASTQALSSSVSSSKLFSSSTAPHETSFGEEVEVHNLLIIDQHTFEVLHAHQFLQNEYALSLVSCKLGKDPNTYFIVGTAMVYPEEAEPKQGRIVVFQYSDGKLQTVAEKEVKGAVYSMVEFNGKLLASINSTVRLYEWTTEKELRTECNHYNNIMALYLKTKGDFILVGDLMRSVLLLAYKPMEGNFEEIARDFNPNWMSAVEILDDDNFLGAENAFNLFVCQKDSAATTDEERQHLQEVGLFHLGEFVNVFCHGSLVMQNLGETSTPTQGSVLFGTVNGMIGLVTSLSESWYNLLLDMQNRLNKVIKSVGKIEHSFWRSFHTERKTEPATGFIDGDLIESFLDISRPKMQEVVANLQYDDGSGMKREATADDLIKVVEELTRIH

GSPT1 degradation versus concentration (GSPT1 [1]): concentration dependent manner | extent of GSPT1 degradation (GSPT1 [2]; high N-Myc NCI-H1155 and ABC-1 cells, six hours of treatment): Complete degradation of GSPT1
SMILES: Cc1ccc(NC(=O)OCc2ccc3c(c2)C(=O)N(C2CCC(=O)NC2=O)C3)cc1Cl (stereo not shown) [Compound 10]
Concentration dependence of GSPT1 degradation (FIG. 2B) (GSPT1 [2]; NCI-H1155 and ABC-1 cells): Degradation took place in a concentration dependent manner | tumor size (tumor volume) (NCI-H526; 3 mg/kg once daily, PO): tumor size decreased and remained so until the end of the study | tumor size (tumor volume) (NCI-H526; 6 mg/kg PO, five days on and nine days off): tumor size decreased and remained so until the end of the study | body weight (NCI-H526; oral administration, NCI-H526 xenograft): no body weight loss observed | tumor growth (tumor volume) (NCI-H526; oral administration, NCI-H526 xenograft, overall): tumor growth inhibition
